Test results as given in patent publication US20210038753A1, “BIOLOGICAL STERILIZATION INDICATOR WITH STERILANT RESISTANCE MODULATOR” (3M INNOVATIVE PROPERTIES COMPANY, priority 2014, published 2021).

Key:
[1] = tested on: Geobacillus stearothermophilus spores; test: Resistance of self-contained biological indicators to hydrogen peroxide sterilization, growth readout by pH colour change (GRO+); format: cell-based
Method: (§1) PET film (.09 mm thick) was coated with colloidal silica as described in International Publication No. WO2014/189716, which is incorporated herein by reference in its entirety. […] Separate aqueous spore coating solutions were prepared as described in Example 1 with the amino acids shown in table 4 present in the coating solutions. Two microliter aliquots (containing at least 10^6 spores) of the respective spore coating solutions were deposited onto the silica-coated PET film, forming a series of spaced-apart spots on the film. The spore coated films were dried in a 60° C. incubator for 12 minutes. Circular discs (hereinafter, “coated carriers”) of the PET film, each disc including one of the dried spots, were punched out and were used to assemble self-contained biological indicators (BI) similar to that shown in FIG. 1 of International Publication No. WO2014/189716. The coated carriers described above were placed into the “spore carrier 135” shown in FIG. 1 of International Publication No. WO2014/189716. Each self-contained BI comprised a polycarbonate outer container, a breaker, a cap, and a cap filter. Disposed inside the outer container were a coated carrier along with an ampoule media containing the nutrient medium from 3M ATTEST 1292 Rapid Readout Biological Indicators plus 5g/L methionine (as described in Example 1).
(§2) The self-contained biological indicators with different concentrations of additives (Table 4) were exposed to hydrogen peroxide sterilization in STERRAD NX sterilizer. The sterilization processes were run by manually injecting 1.0 ml of 59% hydrogen peroxide per load, unless specified otherwise. The exposure time was varied to determine the resistance profile of self-contained BIs with different additive formulations. The BIs were activated by pressing down the cap to break the media ampoule. The activated BIs were placed in a bench-top fluorimeter (3M Company, St. Paul, Minn.) to detect fluorescence.
(§3) A self-contained BI that is not completely inactivated (i.e., not all of the spores are killed by the sterilization process) will resume cellular functions upon activation of the BI. The production of glucosidase enzyme by surviving spores is an indication that at least one of the spores have not been inactivated (killed) by the sterilization process. The glucosidase enzyme cleaves the 4-methylumbelliferyl-glucoside (MUG) releasing the fluorescent methyl umbelliferone, which is detected using a bench-top fluorimeter. Growth and proliferation of spores in the self-contained biological indicator can also be detected by a pH change, which may be detected by a color change of the pH indicator in the growth medium.
(§4) Self-contained biological indicators were prepared (with various additives listed in table 4) as described above in this Example. For each additive tested, a lower range and a higher range was used as a preliminary screen to identify additives modulated the resistance of the spores to the sterilant. Five self-contained BIs representing each condition were exposed to hydrogen peroxide sterilization in STERRAD NX sterilizer. The sterilization processes used a constant injection volume (1.0 ml of 59% hydrogen peroxide) and various times (e.g., 20 seconds to 7 minutes) of exposure to the hydrogen peroxide. The self-contained BIs were activated after exposure to the sterilization process and were monitored for fluorescence using a bench-top fluorimeter) and pH based color change (visually). […]
(§5) Self-contained biological indicators (with various additives listed in table 5) were prepared as described in Example 2. The self-contained biological indicators were exposed to hydrogen peroxide in a STERRAD NX sterilizer as described in Example 2. The self-contained BIs were activated after exposure to the sterilization process and were monitored for fluorescence using a bench-top fluorimeter and pH based color change (visually).

[2] = tested on: Geobacillus stearothermophilus spores; test: Resistance of self-contained biological indicators to hydrogen peroxide sterilization, glucosidase enzyme activity fluorescence readout (ENZ+); format: cell-based
Method: as §1, §2, §3, §4, §5

[3] = Table 4, modulator 0.01 weight percent in spore coating solution, H2O2 exposure 30 sec.
[4] = Table 4, modulator 0.01 weight percent in spore coating solution, H2O2 exposure 60 sec.
[5] = Table 4, modulator 0.01 weight percent in spore coating solution, H2O2 exposure 90 sec.
[6] = Table 4, modulator 0.01 weight percent in spore coating solution, H2O2 exposure 3 min.
[7] = Table 4, modulator 0.01 weight percent in spore coating solution, H2O2 exposure 7 min.
[8] = Table 4, modulator 0.1 weight percent in spore coating solution, H2O2 exposure 30 sec.
[9] = Table 4, modulator 0.1 weight percent in spore coating solution, H2O2 exposure 60 sec.
[10] = Table 4, modulator 0.1 weight percent in spore coating solution, H2O2 exposure 90 sec.
[11] = Table 4, modulator 0.1 weight percent in spore coating solution, H2O2 exposure 3 min.
[12] = Table 4, modulator 0.1 weight percent in spore coating solution, H2O2 exposure 7 min.
[13] = Table 5, modulator 0.05 weight percent in spore coating solution, H2O2 exposure 20 sec.
[14] = Table 5, modulator 0.05 weight percent in spore coating solution, H2O2 exposure 30 sec.
[15] = Table 5, modulator 0.05 weight percent in spore coating solution, H2O2 exposure 60 sec.
[16] = Table 5, modulator 0.05 weight percent in spore coating solution, H2O2 exposure 90 sec.
[17] = Table 5, modulator 0.05 weight percent in spore coating solution, H2O2 exposure 3 min.
[18] = Table 5, modulator 0.05 weight percent in spore coating solution, H2O2 exposure 7 min.
[19] = Table 5, modulator 0.1 weight percent in spore coating solution, H2O2 exposure 20 sec.
[20] = Table 5, modulator 0.1 weight percent in spore coating solution, H2O2 exposure 30 sec.
[21] = Table 5, modulator 0.1 weight percent in spore coating solution, H2O2 exposure 60 sec.
[22] = Table 5, modulator 0.1 weight percent in spore coating solution, H2O2 exposure 90 sec.
[23] = Table 5, modulator 0.1 weight percent in spore coating solution, H2O2 exposure 3 min.
[24] = Table 5, modulator 0.1 weight percent in spore coating solution, H2O2 exposure 7 min.
[25] = Table 5, modulator 0.2 weight percent in spore coating solution, H2O2 exposure 20 sec.
[26] = Table 5, modulator 0.2 weight percent in spore coating solution, H2O2 exposure 30 sec.
[27] = Table 5, modulator 0.2 weight percent in spore coating solution, H2O2 exposure 60 sec.
[28] = Table 5, modulator 0.2 weight percent in spore coating solution, H2O2 exposure 90 sec.
[29] = Table 5, modulator 0.2 weight percent in spore coating solution, H2O2 exposure 3 min.
[30] = Table 5, modulator 0.2 weight percent in spore coating solution, H2O2 exposure 7 min.
[31] = Table 5, modulator 0.4 weight percent in spore coating solution, H2O2 exposure 20 sec.
[32] = Table 5, modulator 0.4 weight percent in spore coating solution, H2O2 exposure 30 sec.
[33] = Table 5, modulator 0.4 weight percent in spore coating solution, H2O2 exposure 60 sec.
[34] = Table 5, modulator 0.4 weight percent in spore coating solution, H2O2 exposure 90 sec.
[35] = Table 5, modulator 0.4 weight percent in spore coating solution, H2O2 exposure 3 min.
[36] = Table 5, modulator 0.4 weight percent in spore coating solution, H2O2 exposure 7 min.
[37] = Table 5, modulator 0.8 weight percent in spore coating solution, H2O2 exposure 20 sec.
[38] = Table 5, modulator 0.8 weight percent in spore coating solution, H2O2 exposure 30 sec.
[39] = Table 5, modulator 0.8 weight percent in spore coating solution, H2O2 exposure 60 sec.
[40] = Table 5, modulator 0.8 weight percent in spore coating solution, H2O2 exposure 90 sec.
[41] = Table 5, modulator 0.8 weight percent in spore coating solution, H2O2 exposure 3 min.
[42] = Table 5, modulator 0.8 weight percent in spore coating solution, H2O2 exposure 7 min.

N=C(N)NCCC[C@H](N)C(=O)O [L-arginine]
sensitivity of the biological indicator to the sterilization process relative to the control with no additives ([1]; Example 2 / Comparative Example 1 (Table 4), fluorescence and growth readouts): increased sensitivity (decreased resistance) | sensitivity of the spores to the damaging/lethal effects of the sterilization process relative to the control with no additives ([1]; Example 3 (Table 5), fluorescence and growth readouts): increased sensitivity | percentage of self-contained biological indicators positive for growth (GRO+) [1, 3]: 100% | percentage of self-contained biological indicators positive for growth (GRO+) [1, 4]: 0% | percentage of self-contained biological indicators positive for growth (GRO+) [1, 5]: 0% | percentage of self-contained biological indicators positive for growth (GRO+) [1, 6]: 0% | percentage of self-contained biological indicators positive for growth (GRO+) [1, 7]: 0% | percentage of self-contained biological indicators positive for growth (GRO+) [1, 8]: 40% | percentage of self-contained biological indicators positive for growth (GRO+) [1, 9]: 0% | percentage of self-contained biological indicators positive for growth (GRO+) [1, 10]: 0% | percentage of self-contained biological indicators positive for growth (GRO+) [1, 11]: 0% | percentage of self-contained biological indicators positive for growth (GRO+) [1, 12]: 0% | percentage of self-contained biological indicators positive for growth (GRO+) [1, 13]: 100% | percentage of self-contained biological indicators positive for growth (GRO+) [1, 14]: 100% | percentage of self-contained biological indicators positive for growth (GRO+) [1, 15]: 0% | percentage of self-contained biological indicators positive for growth (GRO+) [1, 16]: 0% | percentage of self-contained biological indicators positive for growth (GRO+) [1, 17]: 0% | percentage of self-contained biological indicators positive for growth (GRO+) [1, 18]: 0% | percentage of self-contained biological indicators positive for growth (GRO+) [1, 19]: 100% | percentage of self-contained biological indicators positive for growth (GRO+) [1, 20]: 100% | percentage of self-contained biological indicators positive for growth (GRO+) [1, 21]: 0% | percentage of self-contained biological indicators positive for growth (GRO+) [1, 22]: 0% | percentage of self-contained biological indicators positive for growth (GRO+) [1, 23]: 0% | percentage of self-contained biological indicators positive for growth (GRO+) [1, 24]: 0% | percentage of self-contained biological indicators positive for growth (GRO+) [1, 25]: 100% | percentage of self-contained biological indicators positive for growth (GRO+) [1, 26]: 100% | percentage of self-contained biological indicators positive for growth (GRO+) [1, 27]: 0% | percentage of self-contained biological indicators positive for growth (GRO+) [1, 28]: 0% | percentage of self-contained biological indicators positive for growth (GRO+) [1, 29]: 0% | percentage of self-contained biological indicators positive for growth (GRO+) [1, 30]: 0% | percentage of self-contained biological indicators positive for growth (GRO+) [1, 31]: 67% | percentage of self-contained biological indicators positive for growth (GRO+) [1, 32]: 33% | percentage of self-contained biological indicators positive for growth (GRO+) [1, 33]: 0% | percentage of self-contained biological indicators positive for growth (GRO+) [1, 34]: 0% | percentage of self-contained biological indicators positive for growth (GRO+) [1, 35]: 0% | percentage of self-contained biological indicators positive for growth (GRO+) [1, 36]: 0% | percentage of self-contained biological indicators positive for growth (GRO+) [1, 37]: 33% | percentage of self-contained biological indicators positive for growth (GRO+) [1, 38]: 0% | percentage of self-contained biological indicators positive for growth (GRO+) [1, 39]: 0% | percentage of self-contained biological indicators positive for growth (GRO+) [1, 40]: 0% | percentage of self-contained biological indicators positive for growth (GRO+) [1, 41]: 0% | percentage of self-contained biological indicators positive for growth (GRO+) [1, 42]: 0% | percentage of self-contained biological indicators positive for glucosidase enzyme activity (ENZ+) [2, 3]: 80% | percentage of self-contained biological indicators positive for glucosidase enzyme activity (ENZ+) [2, 4]: 60% | percentage of self-contained biological indicators positive for glucosidase enzyme activity (ENZ+) [2, 5]: 0% | percentage of self-contained biological indicators positive for glucosidase enzyme activity (ENZ+) [2, 6]: 0% | percentage of self-contained biological indicators positive for glucosidase enzyme activity (ENZ+) [2, 7]: 0% | percentage of self-contained biological indicators positive for glucosidase enzyme activity (ENZ+) [2, 8]: 80% | percentage of self-contained biological indicators positive for glucosidase enzyme activity (ENZ+) [2, 9]: 0% | percentage of self-contained biological indicators positive for glucosidase enzyme activity (ENZ+) [2, 10]: 0% | percentage of self-contained biological indicators positive for glucosidase enzyme activity (ENZ+) [2, 11]: 0% | percentage of self-contained biological indicators positive for glucosidase enzyme activity (ENZ+) [2, 12]: 0% | percentage of self-contained biological indicators positive for glucosidase enzyme activity (ENZ+) [2, 13]: 100% | percentage of self-contained biological indicators positive for glucosidase enzyme activity (ENZ+) [2, 14]: 100% | percentage of self-contained biological indicators positive for glucosidase enzyme activity (ENZ+) [2, 15]: 67% | percentage of self-contained biological indicators positive for glucosidase enzyme activity (ENZ+) [2, 16]: 0% | percentage of self-contained biological indicators positive for glucosidase enzyme activity (ENZ+) [2, 17]: 0% | percentage of self-contained biological indicators positive for glucosidase enzyme activity (ENZ+) [2, 18]: 0% | percentage of self-contained biological indicators positive for glucosidase enzyme activity (ENZ+) [2, 19]: 100% | percentage of self-contained biological indicators positive for glucosidase enzyme activity (ENZ+) [2, 20]: 100% | percentage of self-contained biological indicators positive for glucosidase enzyme activity (ENZ+) [2, 21]: 33% | percentage of self-contained biological indicators positive for glucosidase enzyme activity (ENZ+) [2, 22]: 0% | percentage of self-contained biological indicators positive for glucosidase enzyme activity (ENZ+) [2, 23]: 0% | percentage of self-contained biological indicators positive for glucosidase enzyme activity (ENZ+) [2, 24]: 0% | percentage of self-contained biological indicators positive for glucosidase enzyme activity (ENZ+) [2, 25]: 100% | percentage of self-contained biological indicators positive for glucosidase enzyme activity (ENZ+) [2, 26]: 100% | percentage of self-contained biological indicators positive for glucosidase enzyme activity (ENZ+) [2, 27]: 33% | percentage of self-contained biological indicators positive for glucosidase enzyme activity (ENZ+) [2, 28]: 0% | percentage of self-contained biological indicators positive for glucosidase enzyme activity (ENZ+) [2, 29]: 0% | percentage of self-contained biological indicators positive for glucosidase enzyme activity (ENZ+) [2, 30]: 0% | percentage of self-contained biological indicators positive for glucosidase enzyme activity (ENZ+) [2, 31]: 100% | percentage of self-contained biological indicators positive for glucosidase enzyme activity (ENZ+) [2, 32]: 100% | percentage of self-contained biological indicators positive for glucosidase enzyme activity (ENZ+) [2, 33]: 0% | percentage of self-contained biological indicators positive for glucosidase enzyme activity (ENZ+) [2, 34]: 0% | percentage of self-contained biological indicators positive for glucosidase enzyme activity (ENZ+) [2, 35]: 0% | percentage of self-contained biological indicators positive for glucosidase enzyme activity (ENZ+) [2, 36]: 0% | percentage of self-contained biological indicators positive for glucosidase enzyme activity (ENZ+) [2, 37]: 100% | percentage of self-contained biological indicators positive for glucosidase enzyme activity (ENZ+) [2, 38]: 67% | percentage of self-contained biological indicators positive for glucosidase enzyme activity (ENZ+) [2, 39]: 0% | percentage of self-contained biological indicators positive for glucosidase enzyme activity (ENZ+) [2, 40]: 0% | percentage of self-contained biological indicators positive for glucosidase enzyme activity (ENZ+) [2, 41]: 0% | percentage of self-contained biological indicators positive for glucosidase enzyme activity (ENZ+) [2, 42]: 0%
